Counter-ions that a name gives are not always drawn. Like-named read-outs stand apart in the source and are kept apart here.
Tests used:
[1] = cited from earlier work; for bioavailability: oral, valacyclovir in comparison to acyclovir
[2] = Thermogravimetric analysis (TGA), thermally induced weight loss / thermal stability; type: physicochemical
Excerpt: Polymorph I of valacyclovir mesylate according to the present invention is further characterised by a typical TGA thermograph, or substantially the same TGA thermograph, as shown in FIG. 3. As used herein, the term “TGA” refers to thermogravimetric analysis. […] TGA is restricted in transitions that involve either a gain or a loss of mass and it is most commonly used to study desolvation processes and compound decomposition.
FIG. 3: Typical TGA thermograph of polymorph I of valacyclovir mesylate obtained by using thermogravimetric analysis (TGA) using TGA 7 manufactured by Perkin-Elmer. The experiments were done under flow of nitrogen (35 ml/min) and heating rate was 10° C./min.

[3] = Dynamic vapour sorption (DVS), moisture sorption / hygroscopicity; type: physicochemical
Excerpt: DVS is a measure of the water vapour or moisture sorption of a material under varying conditions of humidity and it can be used as a measure of the hygroscopicity of a given material. The DVS data as described herein was obtained using the Dynamic Vapour Sorption (DVS) methodology developed by Surface Measurement Systems (SMS) Ltd. for the rapid quantitative analysis of the water sorption properties of solids including pharmaceutical materials. The Surface Measurement Systems DVS instrument rapidly measures uptake and loss of moisture by flowing a carrier gas at a specified relative humidity (RH) over a sample (1 mg-1.5 g) suspended from the weighing mechanism of a Cahn D-200 ultra sensitive recording microbalance. This particular microbalance is used because it is capable of measuring changes in sample mass lower than 1 part in 10 million and provides the long-term stability as required for the accurate measurement of vapour sorption phenomena, which may take from minutes to days to complete depending upon the sample size and material. Indeed, a major factor in determining the water sorption behaviour of materials is the need to establish rapid water sorption equilibrium, therefore the DVS instrument allows sorption behaviour to be accurately determined on very small sample sizes (typically 10 mg), thus minimising the equilibration time required. One of the most critical factors for any instrumentation used for investigating moisture sorption behaviour is the temperature stability of the measurement system. The main DVS instrument systems as used herein are, therefore, housed in a precisely controlled constant temperature incubator with a temperature stability of ±0.1° C. This ensures very good instrument baseline stability as well as accurate control of the relative humidity generation. The required relative humidities are generated by accurately mixing dry and saturated vapour gas flows in the correct proportions using mass flow controllers. Humidity and temperature probes are situated just below the sample and reference holders to give independent verification of system performance. The microbalance mechanism is very sensitive to sorption and desorption of moisture. A constant dry gas purge to the balance head is, therefore, provided to give the best performance in terms of baseline stability. The purge flow is manually controlled such that in the event of a power failure, condensation of moisture in the balance head cannot occur. The DVS instrument is fully automated.

[4] = cited from earlier work
[5] = at about 90% relative humidity (RH)
[6] = temperature range of about 30-175° C.

## Nc1nc2c(ncn2COCCO)c(=O)[nH]1 [Acyclovir, 9-[(2-hydroxyethoxy)methyl]guanine]
[1]
  bioavailability: low bioavailability

## CC(C)[C@H](N)C(=O)OCCOCn1cnc2c(=O)[nH]c(N)nc21 [Polymorph I of valacyclovir base, L-valine 2-[(2-amino-1,6-dihydro-6-oxo-9H-purin-9-yl)methoxy]ethyl ester]
[2]; solid form as prepared
  stable to a temperature of (thermal stability confirmed by TGA): about 200 °C
[2]; temperature range of about 200° C.
  TGA weight loss: no TGA weight loss
[3]; [5]
  dynamic vapour sorption (DVS): about 0.4%

## CC(C)[C@H](N)C(=O)OCCOCn1cnc2c(=O)[nH]c(N)nc21 [valacyclovir hydrochloride]
[4]
  solubility in water: moderately soluble

## CC(C)[C@H](N)C(=O)OCCOCn1cnc2c(=O)[nH]c(N)nc21 [valacyclovir, L-valine 2-[(2-amino-1,6-dihydro-6-oxo-9H-purin-9-yl)methoxy]ethyl ester]
[1]; after oral administration
  absorption from the gastrointestinal tract: rapidly absorbed
[1]
  bioavailability: improved bioavailability

## valacyclovir citrate [Polymorph I of valacyclovir citrate]
[2]; solid form as prepared
  stable to a temperature of (thermal stability confirmed by TGA): about 180 °C
[2]; temperature range of about 30-80° C.
  TGA weight loss: about 2.6%

## valacyclovir fumarate [Polymorph I of valacyclovir fumarate]
[2]; solid form as prepared
  stable to a temperature of (thermal stability confirmed by TGA): about 200 °C
[2]; temperature range of about 30-100° C.
  TGA weight loss: about 0.9%

## valacyclovir fumarate [Polymorph II of valacyclovir fumarate]
[2]
  stable to a temperature of (thermal stability confirmed by TGA): about 150 °C
[2]; temperature range of about 30-140° C.
  TGA weight loss: about 9.2%

## valacyclovir maleate [Polymorph I of valacyclovir maleate]
[2]; solid form as prepared
  stable to a temperature of (thermal stability confirmed by TGA): about 160 °C
[2]; temperature range of about 30-150° C.
  TGA weight loss: about 5.3%

## valacyclovir mesylate [Polymorph I of valacyclovir mesylate]
[2]; solid form as prepared
  stable to a temperature of (thermal stability confirmed by TGA): about 200 °C
[2]; temperature range of about 30-165° C.
  TGA weight loss: about 2.5%
[3]; [5]
  dynamic vapour sorption (DVS): about 3.6%

## valacyclovir phosphate [Polymorph I of valacyclovir phosphate]
[2]; solid form as prepared
  stable to a temperature of (thermal stability confirmed by TGA): about 200 °C
[2]; temperature range of about 30-200° C.
  TGA weight loss: no TGA weight loss
[3]; at about 80% RH
  dynamic vapour sorption (DVS): about 1.0%
[3]; [5]
  dynamic vapour sorption (DVS): about 5.1%

## valacyclovir phosphate [Polymorph II of valacyclovir phosphate]
[2]; [6]
  TGA weight loss: about 6.8%

## valacyclovir phosphate [Polymorph III of valacyclovir phosphate]
[2]; [6]
  TGA weight loss: about 2.1%
[3]; [5]
  dynamic vapour sorption (DVS): about 5.2%
